Assay results taken from ChEMBL document CHEMBL1156255, “Hit to lead optimization of pyrazolo[1,5-a]pyrimidines as B-Raf kinase inhibitors” (Bioorg Med Chem Lett, 2009).
One block for each molecule: values may come before it.

Legend:
[1] = target: Serine/threonine-protein kinase B-raf (Homo sapiens, UniProt P15056); test: Inhibition of b-Raf
[2] = target: Mitogen-activated protein kinase 8 (Homo sapiens, UniProt P45983); test: Inhibition of JNK1
A-375 = test: Antiproliferative activity against human A375 cells; format: functional, cell-based
[3] = target: Mitogen-activated protein kinase 14 (Homo sapiens, UniProt Q16539); test: Inhibition of P38alpha
[4] = Permeability at pH 7.4 by PAMPA; format: ADME; conditions: read-out: permeability
[5] = Inhibition of p70S6K
[6] = Half life in rat microsomes; format: ADME, Microsome
[7] = target: Proto-oncogene tyrosine-protein kinase Src (Homo sapiens, UniProt P12931); test: Inhibition of Src
[8] = target: Tyrosine-protein kinase ABL1 (Homo sapiens, UniProt P00519); test: Inhibition of Abl1
[9] = target: Mitogen-activated protein kinase kinase kinase kinase 2 (Homo sapiens, UniProt Q12851); test: Inhibition of GCK
LoVo = test: Antiproliferative activity against human LoVo cells; format: functional, cell-based
[10] = target: Tyrosine-protein kinase Lck (Homo sapiens, UniProt P06239); test: Inhibition of LCK
Caco-2 = test: Antiproliferative activity against human Caco-2 cells; format: functional, cell-based
[11] = target: Insulin-like growth factor 1 receptor (Homo sapiens, UniProt P08069); test: Inhibition of IGFR1
[12] = Inhibition of PKA
[13] = target: Cyclin-dependent kinase 2 (Homo sapiens, UniProt P24941); test: Inhibition of CDK2
HT-29 = test: Antiproliferative activity against human HT-29 cells; format: functional, cell-based
[14] = Metabolic stability in nude mouse microsomes assessed as half life; format: ADME, Microsome
[15] = target: Phosphatidylinositol 4,5-bisphosphate 3-kinase catalytic subunit alpha isoform (Homo sapiens, UniProt P42336); test: Inhibition of PI3Kalpha
[16] = target: Tyrosine-protein kinase Fyn (Homo sapiens, UniProt P06241); test: Inhibition of Fyn
[17] = target: Protein kinase C alpha type (Homo sapiens, UniProt P17252); test: Inhibition of PKCalpha
[18] = target: 3-phosphoinositide-dependent protein kinase 1 (Homo sapiens, UniProt O15530); test: Inhibition of PDK1
[19] = target: Mitogen-activated protein kinase kinase kinase 8 (Homo sapiens, UniProt P41279); test: Inhibition of TPL2
[20] = Inhibition of CK1gamma
[21] = target: Rho-associated protein kinase 1 (Homo sapiens, UniProt Q13464); test: Inhibition of ROCK1
[22] = target: MAP kinase-activated protein kinase 2 (Homo sapiens, UniProt P49137); test: Inhibition of MK2
[23] = Antiproliferative activity against human WM266.4 cells; format: functional, cell-based; conditions: WM 266-4
[24] = target: Protein kinase C beta type (Homo sapiens, UniProt P05771); test: Inhibition of PKCbeta
[25] = target: Mitogen-activated protein kinase 1 (Homo sapiens, UniProt P28482); test: Inhibition of ERK2
BXPC-3 = test: Antiproliferative activity against human BxPC3 cells; format: functional, cell-based
[26] = target: Cyclin-dependent kinase 1 (Homo sapiens, UniProt P06493); test: Inhibition of CDK1
[27] = target: RAC-alpha serine/threonine-protein kinase (Homo sapiens, UniProt P31749); test: Inhibition of PKBalpha
[28] = target: Serine/threonine-protein kinase Chk1 (Homo sapiens, UniProt O14757); test: Inhibition of CHK1
[29] = target: Serine/threonine-protein kinase mTOR (Homo sapiens, UniProt P42345); test: Inhibition of mTOR
[30] = Inhibition of RSK
[31] = target: Serine/threonine-protein kinase PLK1 (Homo sapiens, UniProt P53350); test: Inhibition of PLK1
[32] = target: Inhibitor of nuclear factor kappa-B kinase subunit beta (Homo sapiens, UniProt O14920); test: Inhibition of IKK-beta

Serine/threonine-protein kinase B-raf, sequence (P15056 whole entry): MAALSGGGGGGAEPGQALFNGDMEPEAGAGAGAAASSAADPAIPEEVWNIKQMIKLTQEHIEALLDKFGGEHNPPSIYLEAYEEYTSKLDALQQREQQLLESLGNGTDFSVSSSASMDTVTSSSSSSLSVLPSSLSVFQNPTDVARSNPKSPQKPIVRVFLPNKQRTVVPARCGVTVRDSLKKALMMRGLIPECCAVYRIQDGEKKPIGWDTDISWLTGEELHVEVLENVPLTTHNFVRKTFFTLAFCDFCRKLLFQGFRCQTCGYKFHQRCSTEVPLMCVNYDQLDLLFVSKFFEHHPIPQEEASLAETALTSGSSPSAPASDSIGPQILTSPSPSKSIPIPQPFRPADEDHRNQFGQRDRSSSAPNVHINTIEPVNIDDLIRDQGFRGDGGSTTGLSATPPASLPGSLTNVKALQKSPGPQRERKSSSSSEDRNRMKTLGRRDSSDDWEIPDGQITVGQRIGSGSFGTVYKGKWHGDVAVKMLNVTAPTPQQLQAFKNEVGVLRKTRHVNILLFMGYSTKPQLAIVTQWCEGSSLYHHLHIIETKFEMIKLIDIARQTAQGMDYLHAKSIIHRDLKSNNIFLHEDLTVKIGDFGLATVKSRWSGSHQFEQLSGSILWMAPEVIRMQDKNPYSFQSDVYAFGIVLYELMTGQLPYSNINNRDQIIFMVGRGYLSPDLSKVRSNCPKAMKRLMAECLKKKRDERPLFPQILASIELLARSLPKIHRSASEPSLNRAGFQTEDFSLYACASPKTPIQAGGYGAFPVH
RAC-alpha serine/threonine-protein kinase, sequence (P31749 whole entry): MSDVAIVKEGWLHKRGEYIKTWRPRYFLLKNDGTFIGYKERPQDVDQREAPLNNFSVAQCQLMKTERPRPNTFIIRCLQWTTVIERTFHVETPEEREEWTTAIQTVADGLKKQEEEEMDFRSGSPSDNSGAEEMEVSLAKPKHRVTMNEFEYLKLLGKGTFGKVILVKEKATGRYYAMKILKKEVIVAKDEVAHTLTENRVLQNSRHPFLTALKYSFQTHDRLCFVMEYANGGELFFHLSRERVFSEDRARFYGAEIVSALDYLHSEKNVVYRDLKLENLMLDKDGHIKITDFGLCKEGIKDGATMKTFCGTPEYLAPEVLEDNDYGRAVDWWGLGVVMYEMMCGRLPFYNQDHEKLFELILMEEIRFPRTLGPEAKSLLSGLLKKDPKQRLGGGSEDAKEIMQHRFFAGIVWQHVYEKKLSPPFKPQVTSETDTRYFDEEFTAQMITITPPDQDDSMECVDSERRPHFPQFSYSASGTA
Protein kinase C beta type, sequence (P05771 whole entry): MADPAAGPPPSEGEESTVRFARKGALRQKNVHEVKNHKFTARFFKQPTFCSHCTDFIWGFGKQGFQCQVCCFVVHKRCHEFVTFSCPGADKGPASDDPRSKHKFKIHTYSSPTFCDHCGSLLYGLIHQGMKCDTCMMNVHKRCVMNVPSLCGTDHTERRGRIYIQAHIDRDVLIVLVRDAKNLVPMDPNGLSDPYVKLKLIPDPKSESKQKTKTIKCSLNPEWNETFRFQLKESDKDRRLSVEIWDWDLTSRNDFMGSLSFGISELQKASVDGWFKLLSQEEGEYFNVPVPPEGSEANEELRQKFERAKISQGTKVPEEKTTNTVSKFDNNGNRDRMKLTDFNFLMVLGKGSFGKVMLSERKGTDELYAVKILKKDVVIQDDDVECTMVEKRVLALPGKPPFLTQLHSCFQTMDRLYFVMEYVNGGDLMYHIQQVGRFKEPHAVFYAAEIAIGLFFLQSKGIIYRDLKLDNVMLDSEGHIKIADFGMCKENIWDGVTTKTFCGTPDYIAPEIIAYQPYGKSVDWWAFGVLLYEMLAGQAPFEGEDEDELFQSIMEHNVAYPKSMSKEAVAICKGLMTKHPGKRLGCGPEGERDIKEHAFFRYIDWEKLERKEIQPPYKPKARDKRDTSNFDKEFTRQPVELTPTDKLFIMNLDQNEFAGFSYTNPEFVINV
MAP kinase-activated protein kinase 2, sequence (P49137 whole entry): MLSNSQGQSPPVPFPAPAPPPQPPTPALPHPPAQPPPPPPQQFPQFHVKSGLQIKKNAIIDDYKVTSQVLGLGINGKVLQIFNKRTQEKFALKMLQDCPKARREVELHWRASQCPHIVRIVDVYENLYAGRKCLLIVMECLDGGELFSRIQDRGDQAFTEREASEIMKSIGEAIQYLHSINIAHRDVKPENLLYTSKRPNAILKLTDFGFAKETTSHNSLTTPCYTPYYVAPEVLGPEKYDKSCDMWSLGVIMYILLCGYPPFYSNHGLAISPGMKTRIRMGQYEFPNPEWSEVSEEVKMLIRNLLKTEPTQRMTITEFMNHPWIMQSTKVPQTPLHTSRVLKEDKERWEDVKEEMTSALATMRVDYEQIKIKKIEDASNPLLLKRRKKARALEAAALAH
Rho-associated protein kinase 1, sequence (Q13464 whole entry): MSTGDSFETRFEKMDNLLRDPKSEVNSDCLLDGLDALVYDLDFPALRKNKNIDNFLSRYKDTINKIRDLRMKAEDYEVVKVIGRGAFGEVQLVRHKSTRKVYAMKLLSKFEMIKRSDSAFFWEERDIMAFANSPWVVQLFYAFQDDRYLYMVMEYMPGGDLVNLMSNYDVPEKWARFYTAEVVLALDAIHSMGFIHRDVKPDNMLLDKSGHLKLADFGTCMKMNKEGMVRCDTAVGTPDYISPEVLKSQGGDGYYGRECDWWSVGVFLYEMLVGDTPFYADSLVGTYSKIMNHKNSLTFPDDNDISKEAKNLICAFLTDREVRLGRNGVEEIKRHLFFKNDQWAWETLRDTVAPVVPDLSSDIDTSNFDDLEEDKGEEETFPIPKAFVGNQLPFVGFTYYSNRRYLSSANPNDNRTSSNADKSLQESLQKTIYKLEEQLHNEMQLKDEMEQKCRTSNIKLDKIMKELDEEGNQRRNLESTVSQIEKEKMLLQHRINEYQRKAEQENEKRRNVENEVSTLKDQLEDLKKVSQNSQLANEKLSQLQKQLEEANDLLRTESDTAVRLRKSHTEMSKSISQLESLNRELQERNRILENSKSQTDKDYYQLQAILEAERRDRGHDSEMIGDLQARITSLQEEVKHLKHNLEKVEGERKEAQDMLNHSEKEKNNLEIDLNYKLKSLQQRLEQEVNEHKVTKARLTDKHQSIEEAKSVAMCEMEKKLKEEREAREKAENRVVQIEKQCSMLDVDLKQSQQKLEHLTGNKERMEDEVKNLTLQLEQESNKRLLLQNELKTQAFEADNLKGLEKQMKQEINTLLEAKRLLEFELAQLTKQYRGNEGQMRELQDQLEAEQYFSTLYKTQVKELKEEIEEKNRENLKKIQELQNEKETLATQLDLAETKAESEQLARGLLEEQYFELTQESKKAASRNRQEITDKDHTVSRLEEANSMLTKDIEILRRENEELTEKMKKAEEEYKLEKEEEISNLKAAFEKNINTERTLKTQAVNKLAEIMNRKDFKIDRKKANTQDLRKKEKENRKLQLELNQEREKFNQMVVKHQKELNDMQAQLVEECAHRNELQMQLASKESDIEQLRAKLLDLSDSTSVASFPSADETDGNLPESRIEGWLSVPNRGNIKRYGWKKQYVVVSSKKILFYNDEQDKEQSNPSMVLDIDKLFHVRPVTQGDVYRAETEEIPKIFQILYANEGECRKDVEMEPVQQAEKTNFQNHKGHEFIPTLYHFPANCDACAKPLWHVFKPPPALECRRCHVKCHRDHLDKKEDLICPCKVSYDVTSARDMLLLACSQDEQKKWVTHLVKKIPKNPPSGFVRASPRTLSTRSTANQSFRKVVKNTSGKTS
Phosphatidylinositol 4,5-bisphosphate 3-kinase catalytic subunit alpha isoform, sequence (P42336 whole entry, canonical isoform): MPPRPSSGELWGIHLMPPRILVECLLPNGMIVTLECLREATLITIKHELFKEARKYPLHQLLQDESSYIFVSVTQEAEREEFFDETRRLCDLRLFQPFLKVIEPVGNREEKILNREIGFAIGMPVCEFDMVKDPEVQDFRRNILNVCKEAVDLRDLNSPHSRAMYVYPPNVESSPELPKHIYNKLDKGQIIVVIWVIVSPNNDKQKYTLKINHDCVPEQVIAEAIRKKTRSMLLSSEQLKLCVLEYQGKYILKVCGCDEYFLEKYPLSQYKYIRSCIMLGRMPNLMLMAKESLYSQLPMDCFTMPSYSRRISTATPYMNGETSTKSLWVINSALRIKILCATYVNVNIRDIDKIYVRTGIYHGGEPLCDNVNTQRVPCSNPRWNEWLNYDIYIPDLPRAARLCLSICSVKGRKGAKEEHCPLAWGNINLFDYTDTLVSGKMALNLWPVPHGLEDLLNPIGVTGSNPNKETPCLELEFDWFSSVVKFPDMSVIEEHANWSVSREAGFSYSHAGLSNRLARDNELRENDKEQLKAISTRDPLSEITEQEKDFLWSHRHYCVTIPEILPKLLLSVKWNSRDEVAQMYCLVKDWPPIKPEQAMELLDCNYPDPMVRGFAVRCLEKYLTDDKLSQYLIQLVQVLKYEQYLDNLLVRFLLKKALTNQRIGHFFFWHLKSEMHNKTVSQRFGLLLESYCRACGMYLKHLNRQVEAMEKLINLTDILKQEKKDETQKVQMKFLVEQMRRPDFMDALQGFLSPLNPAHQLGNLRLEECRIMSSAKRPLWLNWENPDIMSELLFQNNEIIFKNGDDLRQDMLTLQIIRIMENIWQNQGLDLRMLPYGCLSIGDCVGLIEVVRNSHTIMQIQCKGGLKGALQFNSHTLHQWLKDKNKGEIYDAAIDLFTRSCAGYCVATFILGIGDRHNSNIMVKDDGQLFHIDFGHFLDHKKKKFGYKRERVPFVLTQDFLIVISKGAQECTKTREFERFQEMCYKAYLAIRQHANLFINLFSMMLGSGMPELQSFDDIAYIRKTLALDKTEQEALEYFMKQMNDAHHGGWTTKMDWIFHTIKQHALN
Cyclin-dependent kinase 1, sequence (P06493 whole entry): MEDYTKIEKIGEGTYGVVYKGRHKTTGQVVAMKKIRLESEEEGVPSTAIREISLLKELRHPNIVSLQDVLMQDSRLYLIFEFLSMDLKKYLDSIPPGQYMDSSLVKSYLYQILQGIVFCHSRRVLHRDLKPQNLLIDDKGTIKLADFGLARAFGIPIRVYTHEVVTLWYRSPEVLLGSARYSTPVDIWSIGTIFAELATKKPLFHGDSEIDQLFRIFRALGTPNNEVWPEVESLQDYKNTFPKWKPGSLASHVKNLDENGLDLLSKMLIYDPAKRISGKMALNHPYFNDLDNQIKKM

- IC50 [1]: 0.1 µM
Compound: Cn1cncc1-c1cc2nccc(-c3cccc(NC(=O)c4cccc(C(F)(F)F)c4)c3)n2n1

- IC50 [2]: > 50 µM
- IC50 (A-375): 0.28 µM
- IC50 [3]: > 50 µM
- Papp [4]: 251 ×10⁻⁶ cm/s
- IC50 [5]: > 50 µM
- half-life [6]: > 30 min
- IC50 [7]: > 50 µM
- IC50 [8]: > 50 µM
- IC50 [9]: > 50 µM
- IC50 (LoVo): 0.4 µM
- IC50 [10]: > 50 µM
- IC50 (Caco-2): 2.6 µM
- IC50 [11]: > 50 µM
- IC50 [12]: > 50 µM
- IC50 [13]: > 50 µM
- IC50 (HT-29): 0.35 µM
- half-life [14]: 24 min
- IC50 [15]: > 50 µM
- IC50 [16]: > 50 µM
- IC50 [17]: > 50 µM
- IC50 [18]: > 50 µM
- IC50 [19]: > 50 µM
- IC50 [20]: > 50 µM
- IC50 [21]: > 50 µM
- IC50 [22]: > 50 µM
- IC50 [24]: > 50 µM
- IC50 [25]: > 50 µM
- IC50 (BXPC-3): 3.1 µM
- IC50 [26]: > 50 µM
- IC50 [27]: > 50 µM
- IC50 [28]: > 50 µM
- IC50 [29]: > 50 µM
- IC50 [30]: > 50 µM
- IC50 [31]: > 50 µM
- IC50 [32]: > 50 µM
Compound: O=C(Nc1cccc(-c2ccnc3cc(-c4ccncc4)nn23)c1)c1cccc(C(F)(F)F)c1
- IC50 [23]: 3.5 µM

- IC50 [1]: 1.6 µM
Compound: O=C(Nc1cccc(-c2ccnc3cc(-c4cnc[nH]4)nn23)c1)c1cccc(C(F)(F)F)c1

- IC50 [1]: 0.66 µM
Compound: O=C(Nc1cccc(-c2ccnc3cc(-c4ccncc4)nn23)c1)c1ccc(Cl)c(Cl)c1

- IC50 [1]: 0.06 µM
Compound: O=C(Nc1cccc(-c2ccnc3cc(-c4ccncc4)nn23)c1)c1ccc(Cl)c(C(F)(F)F)c1

- IC50 [1]: > 10 µM
Compound: O=C(Nc1cccc(-c2ccnc3cc(-c4cccnc4)nn23)c1)c1cccc(C(F)(F)F)c1

- IC50 [1]: 0.13 µM
Compound: O=C(Nc1cccc(-c2ccnc3cc(-c4ccnc(NCCCN5CCOCC5)c4)nn23)c1)c1cccc(C(F)(F)F)c1

- IC50 [1]: 0.11 µM
Compound: O=C(Nc1cccc(-c2ccnc3cc(-c4ccnc(NCCCN5CCCC5=O)c4)nn23)c1)c1cccc(C(F)(F)F)c1

Compound: O=C(Nc1cccc(-c2ccnc3cc(-c4ccnc(NCCCc5ncc[nH]5)c4)nn23)c1)c1cccc(C(F)(F)F)c1
- IC50 [1]: 0.066 µM

- IC50 [1]: 0.04 µM
Compound: O=C(Nc1cccc(-c2ccnc3cc(-c4ccncc4)nn23)c1)Nc1ccc(Cl)c(C(F)(F)F)c1
